In the OligoGym collection one finds 3 h FOB score data, which are given here for 25 substances.

HELM strings list units from the 5' end as sugar, base in round brackets, then linkage (d deoxyribose, r ribose, m 2'-O-methyl, p phosphodiester). Strings are as the collection lists them; they lack the last nucleoside at the 3' end of the tested compound. [moe] = 2'-O-(2-methoxyethyl) (MOE); [sp] = phosphorothioate linkage; [m5C] = 5-methylcytosine

This series addresses PRNP. The series can be described thus: mouse, dose not given. The conditions noted are these: ASO.
“RNA1{[moe](T)[sp].[moe](T)p.[moe]([m5C])p.[moe](A)p.[moe](G)[sp].d(A)[sp].d(T)[sp].d(T)[sp].d(T)[sp].d(T)[sp].d(T)[sp].d([m5C])[sp].d(A)[sp].d([m5C])[sp].d(A)[sp].[moe](T)p.[moe](A)p.[moe](T)[sp].[moe](G)}$$$$ (last 3' nucleoside missing)” came in with a 3 h FOB score of 1 score 0-7. As for “RNA1{[moe](T)[sp].[moe](T)p.[moe]([m5C])p.[moe]([m5C])p.[moe](A)[sp].d(G)[sp].d([m5C])[sp].d(T)[sp].d(T)[sp].d([m5C])[sp].d(T)[sp].d(T)[sp].d(A)[sp].d(A)[sp].d(T)[sp].[moe](G)p.[moe]([m5C])p.[moe](A)[sp].[moe](T)}$$$$ (last 3' nucleoside missing)”, the figure is 0 score 0-7; as for “RNA1{[moe](T)[sp].[moe]([m5C])p.[moe](A)p.[moe](G)p.[moe](T)[sp].d(G)[sp].d(T)[sp].d(T)[sp].d(G)[sp].d(T)[sp].d(G)[sp].d(A)[sp].d([m5C])[sp].d(A)[sp].d(A)[sp].[moe](T)p.[moe](A)p.[moe](T)[sp].[moe](T)}$$$$ (last 3' nucleoside missing)”, 4.25 score 0-7; as for “RNA1{[moe](T)[sp].[moe]([m5C])p.[moe](A)p.[moe](G)p.[moe](T)[sp].d(T)[sp].d(T)[sp].d(T)[sp].d(T)[sp].d([m5C])[sp].d([m5C])[sp].d([m5C])[sp].d([m5C])[sp].[moe](A)p.[moe]([m5C])p.[moe](A)[sp].[moe](T)}$$$$ (last 3' nucleoside missing)”, 0 score 0-7. Regarding “RNA1{[moe](T)[sp].[moe]([m5C])p.[moe](A)p.[moe](G)p.[moe](T)p.d(T)[sp].d(T)[sp].d(T)[sp].d(T)[sp].d([m5C])[sp].d([m5C])[sp].d([m5C])[sp].d([m5C])[sp].d(A)[sp].[moe]([m5C])p.[moe](A)p.[moe](T)[sp].[moe](A)}$$$$ (last 3' nucleoside missing)”, the 3 h FOB score turned out to be 0 score 0-7. With “RNA1{[moe](T)[sp].[moe]([m5C])p.[moe](A)p.[moe](T)p.[moe](A)[sp].d(T)[sp].d(T)[sp].d(T)[sp].d([m5C])[sp].d(T)[sp].d(G)[sp].d(T)[sp].d([m5C])[sp].d(A)[sp].d(T)[sp].[moe]([m5C])p.[moe](T)p.[moe]([m5C])[sp].[moe]([m5C])}$$$$ (last 3' nucleoside missing)” the figure was 3 score 0-7. For “RNA1{[moe](T)[sp].[moe]([m5C])p.[moe](A)p.[moe](T)p.[moe](A)p.d(A)[sp].d(T)[sp].d(T)[sp].d(T)[sp].d(T)[sp].d([m5C])[sp].d(T)[sp].d(T)[sp].d(A)[sp].[moe](G)p.[moe]([m5C])p.[moe](T)[sp].[moe](A)}$$$$ (last 3' nucleoside missing)”, the 3 h FOB score is 0 score 0-7. As for “RNA1{[moe](T)[sp].[moe]([m5C])p.[moe](A)p.[moe](T)p.[moe]([m5C])[sp].d(A)[sp].d(T)[sp].d(T)[sp].d(T)[sp].d(T)[sp].d(G)[sp].d([m5C])[sp].d([m5C])[sp].d(A)[sp].d(T)[sp].[moe](T)p.[moe](T)p.[moe](A)[sp].[moe](T)}$$$$ (last 3' nucleoside missing)”, the figure is 6 score 0-7; as for “RNA1{[moe](T)[sp].[moe]([m5C])p.[moe](A)p.[moe]([m5C])p.[moe](T)[sp].d(G)[sp].d(T)[sp].d(G)[sp].d(A)[sp].d(A)[sp].d(T)[sp].d(A)[sp].d(T)[sp].d(G)[sp].d(T)[sp].[moe]([m5C])p.[moe]([m5C])p.[moe](T)[sp].[moe]([m5C])}$$$$ (last 3' nucleoside missing)”, 5 score 0-7. On to “RNA1{[moe](T)[sp].[moe]([m5C])p.[moe](G)p.[moe]([m5C])p.[moe]([m5C])[sp].d(A)[sp].d(T)[sp].d(A)[sp].d(A)[sp].d(T)[sp].d(G)[sp].d(A)[sp].d([m5C])[sp].d(T)[sp].d(G)[sp].[moe]([m5C])p.[moe](T)p.[moe]([m5C])[sp].[moe](T)}$$$$ (last 3' nucleoside missing)”, for which the 3 h FOB score worked out at 4.5 score 0-7.

On to “RNA1{[moe](T)[sp].[moe]([m5C])p.[moe](T)p.[moe](A)p.[moe](T)[sp].d(G)[sp].d(T)[sp].d(T)[sp].d(T)[sp].d(T)[sp].d([m5C])[sp].d([m5C])[sp].d(A)[sp].[moe](G)p.[moe](T)p.[moe](G)[sp].[moe]([m5C])}$$$$ (last 3' nucleoside missing)”, for which the 3 h FOB score worked out at 0 score 0-7. With “RNA1{[moe](T)[sp].[moe]([m5C])p.[moe](T)p.[moe](A)p.[moe](T)[sp].d(G)[sp].d(T)[sp].d(T)[sp].d(T)[sp].d(T)[sp].d([m5C])[sp].d([m5C])[sp].d(A)[sp].d(G)[sp].d(T)[sp].[moe](G)p.[moe]([m5C])p.[moe]([m5C])[sp].[moe]([m5C])}$$$$ (last 3' nucleoside missing)” the figure was 0 score 0-7; with “RNA1{[moe](T)[sp].[moe]([m5C])p.[moe](T)p.[moe](A)p.[moe](T)p.d(G)[sp].d(T)[sp].d(T)[sp].d(T)[sp].d(T)[sp].d([m5C])[sp].d([m5C])[sp].d(A)[sp].d(G)[sp].[moe](T)[sp].[moe](G)p.[moe]([m5C])p.[moe]([m5C])}$$$$ (last 3' nucleoside missing)”, 0 score 0-7; with “RNA1{[moe](T)[sp].[moe]([m5C])p.[moe](T)p.[moe](A)p.[moe](T)p.d(G)[sp].d(T)[sp].d(T)[sp].d(T)[sp].d(T)[sp].d([m5C])[sp].d([m5C])[sp].d(A)[sp].d(G)[sp].[moe](T)p.[moe](G)p.[moe]([m5C])[sp].[moe]([m5C])}$$$$ (last 3' nucleoside missing)”, 0 score 0-7. As for “RNA1{[moe](T)[sp].[moe]([m5C])p.[moe](T)p.[moe](A)p.d(T)[sp].d(G)[sp].d(T)[sp].d(T)[sp].d(T)[sp].d(T)[sp].d([m5C])[sp].d([m5C])[sp].d(A)[sp].d(G)[sp].[moe](T)p.[moe](G)p.[moe]([m5C])p.[moe]([m5C])[sp].[moe]([m5C])}$$$$ (last 3' nucleoside missing)”, the figure is 1 score 0-7. As for “RNA1{[moe](T)[sp].[moe]([m5C])p.[moe](T)p.[moe](G)p.[moe](A)[sp].d(G)[sp].d(A)[sp].d(T)[sp].d(T)[sp].d(T)[sp].d(G)[sp].d(T)[sp].d(T)[sp].d(T)[sp].d(T)[sp].[moe](A)p.[moe](G)p.[moe]([m5C])[sp].[moe]([m5C])}$$$$ (last 3' nucleoside missing)”, the figure is 3 score 0-7; as for “RNA1{[moe](T)[sp].[moe]([m5C])p.[moe](T)p.[moe](T)p.[moe](A)[sp].d(G)[sp].d(A)[sp].d(T)[sp].d(T)[sp].d(T)[sp].d(T)[sp].d(T)[sp].d(G)[sp].d(G)[sp].d(A)[sp].[moe]([m5C])p.[moe](G)p.[moe](G)[sp].[moe](G)}$$$$ (last 3' nucleoside missing)”, 4.5 score 0-7. “RNA1{[moe](T)[sp].[moe]([m5C])p.[moe](T)p.[moe](T)p.[moe](T)[sp].d(T)[sp].d([m5C])[sp].d(T)[sp].d(T)[sp].d(T)[sp].d(G)[sp].d([m5C])[sp].d(A)[sp].d([m5C])[sp].d(A)[sp].[moe]([m5C])p.[moe](T)p.[moe](G)[sp].[moe](A)}$$$$ (last 3' nucleoside missing)”: the 3 h FOB score is 3 score 0-7. In turn, “RNA1{[moe](T)[sp].[moe]([m5C])p.[moe](T)p.[moe]([m5C])p.[moe](A)[sp].d(G)[sp].d(G)[sp].d(T)[sp].d([m5C])[sp].d(T)[sp].d(A)[sp].d([m5C])[sp].d(T)[sp].d([m5C])[sp].d(T)[sp].[moe](A)p.[moe](T)p.[moe](G)[sp].[moe](T)}$$$$ (last 3' nucleoside missing)” displayed a 3 h FOB score of 1.25 score 0-7.

“RNA1{[moe](T)[sp].[moe]([m5C])p.[moe](T)p.[moe]([m5C])p.[moe]([m5C])[sp].d(T)[sp].d(T)[sp].d(G)[sp].d(A)[sp].d(A)[sp].d(T)[sp].d(T)[sp].d(T)[sp].d([m5C])[sp].d(T)[sp].[moe](T)p.[moe](T)p.[moe]([m5C])[sp].[moe](A)}$$$$ (last 3' nucleoside missing)”: the 3 h FOB score stood at 0 score 0-7. In turn, “RNA1{[moe](T)[sp].[moe]([m5C])p.[moe]([m5C])p.[moe](A)p.[moe](T)[sp].d(T)[sp].d(T)[sp].d(T)[sp].d([m5C])[sp].d(T)[sp].d(G)[sp].d(T)[sp].d(G)[sp].d([m5C])[sp].d(T)[sp].[moe](T)p.[moe](T)p.[moe](T)[sp].[moe]([m5C])}$$$$ (last 3' nucleoside missing)” came in with a 3 h FOB score of 3.75 score 0-7. The substance “RNA1{[moe]([m5C])[sp].[moe](A)p.[moe](A)p.[moe](G)p.[moe]([m5C])[sp].d(A)[sp].d(G)[sp].d(T)[sp].d(T)[sp].d([m5C])[sp].d(T)[sp].d(T)[sp].d(T)[sp].d(T)[sp].d([m5C])[sp].[moe](T)p.[moe](T)p.[moe](T)[sp].[moe](G)}$$$$ (last 3' nucleoside missing)” registered a 3 h FOB score of 2.25 score 0-7.

Take “RNA1{[moe]([m5C])[sp].[moe](A)p.[moe](A)p.[moe](T)p.[moe](T)[sp].d(G)[sp].d(T)[sp].d(T)[sp].d(T)[sp].d(T)[sp].d(T)[sp].d([m5C])[sp].d(T)[sp].d([m5C])[sp].d(T)[sp].[moe]([m5C])p.[moe](T)p.[moe]([m5C])[sp].[moe](T)}$$$$ (last 3' nucleoside missing)”: the 3 h FOB score came to 0 score 0-7.

In turn, “RNA1{[moe]([m5C])[sp].[moe](A)p.[moe](G)p.[moe](G)p.[moe](G)[sp].d(A)[sp].d(A)[sp].d(T)[sp].d(A)[sp].d(A)[sp].d(T)[sp].d(T)[sp].d(T)[sp].d(T)[sp].d(A)[sp].[moe]([m5C])p.[moe](T)p.[moe](T)[sp].[moe](T)}$$$$ (last 3' nucleoside missing)” had a 3 h FOB score of 0 score 0-7.

On to “RNA1{[moe]([m5C])[sp].[moe](A)p.[moe](G)p.[moe](T)p.[moe](G)[sp].d(T)[sp].d(T)[sp].d([m5C])[sp].d([m5C])[sp].d(A)[sp].d(T)[sp].d([m5C])[sp].d([m5C])[sp].d(T)[sp].d([m5C])[sp].[moe]([m5C])p.[moe](A)p.[moe](G)[sp].[moe](G)}$$$$ (last 3' nucleoside missing)”, for which the 3 h FOB score is 1 score 0-7.
